Measurements as given in patent US11932908B2, “Compositions and methods for diagnosis and treatment of epilepsy” (THE REGENTS OF THE UNIVERSITY OF CALIFORNIA, priority 2004, dated 2024).
Entries after “also recorded” stand apart in the source; their conditions may differ. Where two headings read alike, the source gives them in different places.

Experiments:
JME seizures = settings: JME patients, cited from earlier work
[1] = cited from earlier work
T type VDCC = settings: cited from earlier work
N type HVDCC = N type HVDCC (Homo sapiens, UniProt Q00975); settings: cited from earlier work
L-type HVDCC = settings: cited from earlier work
P type HVDCC = P type HVDCC (Homo sapiens, UniProt O00555); settings: cited from earlier work
[2] = system: high voltage activated calcium currents (HVDCC); settings: cited from earlier work
[3] = system: EFHC1-transfected hippocampal primary culture neurons; assay: Cell death analyses with VDCCs inhibitors; assay type: cell-based, mouse
Experimental: Cell death analyses with VDCCs inhibitors. Dissociated hippocampal primary culture neurons from embryonic day 16 mice were seeded in 24 well plates containing poly-L-lysine coated coverslips (5×10^4 cells/well). Neurons were transfected with pEGFP-EFHC1 on day 6 in vitro with antagonists and fixed 48 hours post transfection. Calcium channel inhibitors, ω-Agatoxin IVA (PEPTIDE […], INC.) for P-type (Cav2.1), ω-Conotoxin GVIA (PEPTIDE […], INC.) for N-type (Cav2.2), SNX-482 (PEPTIDE […], INC.) for R-type (Cav2.3), flunarizine (Nacalai Tesque) for T-type and nifedipine (SIGMA) for L-type VDCC, were added directly to neuronal culture 3 hrs post transfection.

PQ type VDCC (Cav2.1) = target: T1, PQ type VDCC (Cav2.1) (Oryctolagus cuniculus, UniProt P27884); assay: Patch-clamp analyses of HEK cell line with P/Q type VDCCs and wild type EFHC1 or mutant constructs; assay type: cell-based; settings: for Activation V0.5 (mV): half-maximal voltage of activation; for Activation V0.5 (mV) / Inactivation V0.5 (mV) / Activation k (mV) / Inactivation K (mV): mean ± SEM; for Inactivation V0.5 (mV): half-maximal voltage of inactivation; for Activation k (mV) / Inactivation K (mV): slope factor
T1 construct: expressed in transfected cells; host or cells: HEK cell line

R-type VDCC (Cav2.3) = target: T2, R-type VDCC (Cav2.3) (Oryctolagus cuniculus, UniProt Q02343); assay: Patch-clamp analyses of BHK cells stably expressing Cav2.3 transfected with EFHC1 constructs; assay type: cell-based; settings: whole cell patch-clamp, 24-48 hr after transfection
T2 construct: expressed in transfected cells; host or cells: BHK (BII-104-2) cells
Experimental: Electrophysiological analysis. A baby hamster kidney (BHK) cell line BHK (BII-104-2) stably transfected with the ociE (BII), α2/δ and β1a subunits, were cultured in DMEM medium containing 10% fetal bovine serum (FBS), 30 U/mL penicillin and 30 μg/mL streptomycin. To transiently express wild type or mutant EFHC1, BHK (BII-104-2) cells were transfected with the pEGFP-C2 plasmids (Clonetech) containing EGFP fused with cDNA for EFHC1 or its mutants using SuperFect Transfection Reagent (QIAGEN). For control experiments, EGFP was transiently expressed by transfecting BHK (BII-104-2) with the same amount of pEGFP without the EFHC1 inserts. Cells were trypsinized, diluted with the DMEM medium, and plated onto glass coverslips 18 hrs after transfection. Ca^2+ currents were recorded 24-48 hr after transfection from GFP-positive cells. Currents from BHK (BII-104-2) cells were recorded at room temperature (22-25° C.) using patch-clamp techniques of whole cell mode with an EPC-9 amplifier (HEKA, Germany). Patch pipettes were made from borosilicate glass capillaries (1.5 mm outer diameter and 0.87 mm inner diameter; Hilgenberg) by using a model P-97 Flaming-Brown micropipette puller (Sutter Instrument Co., CA). Pipette resistance ranged from 2 to 3 MΩ when filled with the pipette solutions described below. The series resistance was electronically compensated to >70% and both the leakage and the remaining capacitance were subtracted by −P/6 method. Currents were sampled at 100 kHz in activation kinetics, otherwise sampled at 50 kHz and filtered at 10 kHz. Calcium currents were recorded in an external solution that contained (in mM): 3 CaCl2, 148 tetraethylammonium chloride (TEA-C1), 10 glucose, and 10 HEPES, pH adjusted to 7.4 with Tris-OH. The pipette solution contained (in mM): 85 Cs-aspartate, 40 CsCl, 4 MgCl2, 5 EGTA, 2 ATP2Na, 5 HEPES, and 8 creatine-phosphate, pH adjusted to 7.4 with CsOH. To determine voltage-dependence of activation, amplitude of tail currents at −50 mV after 5 ms test pulse (−40 to 90 mV) was normalized to the maximal tail current amplitude. […]

[4] = system: mouse hippocampal primary culture neurons; settings: 24, 36 and 48 hours after transfection; mutants compared to wild-type EFHC1
Experimental: Mouse hippocampal neurons primary culture. Hippocampal neurons were isolated from embryonic day 16 mice and plated at 1-2×10^5 cells per well in 24 well plate containing glass coverslips coated with poly-1-lysine and grown in serum-free NEUROBASAL™ media supplemented with B27, 0.5 mM L-glutamine (Invitrogen).
Transfection and immunostaining of mouse hippocampal neurons. […] Cultures were fixed with 4% paraformaldehyde in PBS 16 and 48 hours after transfection, permeabilized with 0.3% Triton X-100, blocked in 3% normal goat serum in PBS, and treated with mouse monoclonal anti-MAP-2 antibody (1:500; Sigma) and Alexa fluor 594 goat anti-mouse IgG antibody (1:1000; Molecular Probes).
TUNEL assay. […] Forty-eight hours after transfection, neuronal apoptosis was detected using DeadEndTM Fluorometric TUNEL System (Promega). Nuclei were visualized with Hoescht 33342 (Molecular Probes). These cells were also stained with anti-Myc antibody (1:200; Cell Signaling) and Alexa fluor 594 goat anti-rabbit IgG antibody (1:1000). All experiments were carried out in duplicate wells and at least repeated three times. Neuron cells were observed on a confocal microscope (OLYMPUS FLUOVIEW) following 48 hours post transfection.
Cell death analyses with EFHC1 mutants. […] Surviving cell numbers were scored by counting GFP fluorescent-positive cells that attached to dishes. At each counting, detached cells (dead cells) were carefully removed by changing culture medium. Morphologies of cells (cell shape, length and number of neurites, shrinkage, etc.) were not considered for the counting. Surviving cell numbers were scored at 24, 36, and 48 hours after transfection. Analyses were repeated twice by using two independently prepared expression construct DNAs. In total, neurons in seven wells of 24 well plates were counted for each transfection and time point. Experiments were performed in a blinded fashion.

T1 sequence (P27884 whole entry): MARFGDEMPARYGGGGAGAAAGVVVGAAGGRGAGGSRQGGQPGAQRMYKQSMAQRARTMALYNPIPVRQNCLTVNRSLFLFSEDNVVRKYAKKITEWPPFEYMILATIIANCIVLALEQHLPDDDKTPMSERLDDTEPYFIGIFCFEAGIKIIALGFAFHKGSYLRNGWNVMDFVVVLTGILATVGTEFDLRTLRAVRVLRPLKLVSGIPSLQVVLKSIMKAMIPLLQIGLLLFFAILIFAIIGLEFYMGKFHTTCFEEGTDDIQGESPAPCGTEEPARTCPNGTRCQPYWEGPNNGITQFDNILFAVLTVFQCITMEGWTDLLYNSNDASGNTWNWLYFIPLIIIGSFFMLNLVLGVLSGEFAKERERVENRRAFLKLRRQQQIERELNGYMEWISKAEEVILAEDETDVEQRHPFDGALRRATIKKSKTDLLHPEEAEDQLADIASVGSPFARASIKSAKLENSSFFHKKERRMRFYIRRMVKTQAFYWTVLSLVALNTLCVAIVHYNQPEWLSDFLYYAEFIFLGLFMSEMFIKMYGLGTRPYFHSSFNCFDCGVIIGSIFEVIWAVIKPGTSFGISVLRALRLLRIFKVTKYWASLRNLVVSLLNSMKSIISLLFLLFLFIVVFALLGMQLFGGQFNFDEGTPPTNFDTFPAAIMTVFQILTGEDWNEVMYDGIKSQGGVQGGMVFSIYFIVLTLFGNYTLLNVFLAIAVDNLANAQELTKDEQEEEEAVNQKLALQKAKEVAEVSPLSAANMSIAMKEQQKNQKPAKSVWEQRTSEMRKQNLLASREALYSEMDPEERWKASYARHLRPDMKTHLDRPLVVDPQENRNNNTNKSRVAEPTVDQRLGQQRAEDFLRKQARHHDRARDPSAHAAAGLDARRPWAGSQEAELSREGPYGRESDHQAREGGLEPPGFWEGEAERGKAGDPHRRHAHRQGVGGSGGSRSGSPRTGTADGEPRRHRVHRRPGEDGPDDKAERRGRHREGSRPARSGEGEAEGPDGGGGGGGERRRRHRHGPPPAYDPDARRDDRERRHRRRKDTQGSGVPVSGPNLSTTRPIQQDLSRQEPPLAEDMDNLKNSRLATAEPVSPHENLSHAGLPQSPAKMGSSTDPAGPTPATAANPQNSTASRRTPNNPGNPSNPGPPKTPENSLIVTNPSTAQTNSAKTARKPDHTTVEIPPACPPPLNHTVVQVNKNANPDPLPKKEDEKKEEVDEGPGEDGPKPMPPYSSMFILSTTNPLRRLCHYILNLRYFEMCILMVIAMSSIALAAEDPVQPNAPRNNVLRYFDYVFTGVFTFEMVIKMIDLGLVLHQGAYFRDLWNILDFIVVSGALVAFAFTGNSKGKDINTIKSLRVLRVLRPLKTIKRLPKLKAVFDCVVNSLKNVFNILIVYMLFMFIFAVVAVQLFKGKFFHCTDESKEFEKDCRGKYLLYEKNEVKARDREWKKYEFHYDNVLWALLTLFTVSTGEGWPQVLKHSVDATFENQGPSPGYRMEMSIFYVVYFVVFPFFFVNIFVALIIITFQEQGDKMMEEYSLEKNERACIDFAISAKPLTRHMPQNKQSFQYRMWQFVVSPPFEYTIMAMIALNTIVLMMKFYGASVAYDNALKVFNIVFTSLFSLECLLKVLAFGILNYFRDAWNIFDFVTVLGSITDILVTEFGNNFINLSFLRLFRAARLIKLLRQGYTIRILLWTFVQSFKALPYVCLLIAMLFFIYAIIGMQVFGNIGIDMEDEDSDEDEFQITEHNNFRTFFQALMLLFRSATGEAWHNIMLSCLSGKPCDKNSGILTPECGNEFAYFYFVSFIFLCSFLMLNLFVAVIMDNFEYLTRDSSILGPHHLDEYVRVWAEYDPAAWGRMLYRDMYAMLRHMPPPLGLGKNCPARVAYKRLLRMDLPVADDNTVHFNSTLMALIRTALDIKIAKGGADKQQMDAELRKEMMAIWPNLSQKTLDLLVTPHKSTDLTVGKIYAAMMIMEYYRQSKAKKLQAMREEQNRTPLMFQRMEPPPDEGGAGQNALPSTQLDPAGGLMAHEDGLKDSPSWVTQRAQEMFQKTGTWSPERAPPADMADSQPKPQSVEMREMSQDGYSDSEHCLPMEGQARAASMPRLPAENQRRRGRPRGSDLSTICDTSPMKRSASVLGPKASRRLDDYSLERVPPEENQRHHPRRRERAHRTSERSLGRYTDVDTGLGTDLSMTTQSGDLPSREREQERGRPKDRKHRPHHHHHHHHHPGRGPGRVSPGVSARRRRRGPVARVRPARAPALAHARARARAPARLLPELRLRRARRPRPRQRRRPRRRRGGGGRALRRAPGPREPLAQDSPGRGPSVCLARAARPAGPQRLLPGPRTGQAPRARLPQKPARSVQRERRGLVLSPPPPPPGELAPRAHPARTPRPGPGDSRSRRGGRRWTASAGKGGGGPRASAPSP
T1 sequence (P13806 27-1106 partner): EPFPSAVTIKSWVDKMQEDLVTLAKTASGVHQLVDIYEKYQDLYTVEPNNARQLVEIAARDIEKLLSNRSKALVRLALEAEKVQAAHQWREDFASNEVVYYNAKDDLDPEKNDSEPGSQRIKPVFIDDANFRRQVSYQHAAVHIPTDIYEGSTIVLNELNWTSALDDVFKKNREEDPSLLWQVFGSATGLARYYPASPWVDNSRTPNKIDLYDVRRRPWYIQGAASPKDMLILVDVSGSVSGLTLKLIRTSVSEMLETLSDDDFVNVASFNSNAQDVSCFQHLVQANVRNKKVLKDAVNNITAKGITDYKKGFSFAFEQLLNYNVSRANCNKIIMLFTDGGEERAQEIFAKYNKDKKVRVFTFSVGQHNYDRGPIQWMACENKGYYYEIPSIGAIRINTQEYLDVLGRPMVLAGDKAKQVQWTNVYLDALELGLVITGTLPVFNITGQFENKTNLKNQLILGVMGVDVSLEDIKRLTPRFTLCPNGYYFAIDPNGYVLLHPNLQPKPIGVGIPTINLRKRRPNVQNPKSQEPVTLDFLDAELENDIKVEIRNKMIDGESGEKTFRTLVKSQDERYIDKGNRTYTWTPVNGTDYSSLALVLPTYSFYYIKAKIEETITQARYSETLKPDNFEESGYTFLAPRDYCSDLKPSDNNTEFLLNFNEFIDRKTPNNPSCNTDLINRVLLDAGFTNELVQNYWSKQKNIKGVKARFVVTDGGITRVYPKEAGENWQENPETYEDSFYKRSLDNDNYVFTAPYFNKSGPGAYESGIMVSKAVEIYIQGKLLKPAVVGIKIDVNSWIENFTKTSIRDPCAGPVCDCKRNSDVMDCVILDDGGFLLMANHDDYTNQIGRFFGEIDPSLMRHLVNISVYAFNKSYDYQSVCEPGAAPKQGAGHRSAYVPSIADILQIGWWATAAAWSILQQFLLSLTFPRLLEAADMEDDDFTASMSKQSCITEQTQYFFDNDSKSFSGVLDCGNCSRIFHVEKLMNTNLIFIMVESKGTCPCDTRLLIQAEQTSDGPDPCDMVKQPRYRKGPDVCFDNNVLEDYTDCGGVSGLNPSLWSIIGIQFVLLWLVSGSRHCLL
T1 sequence (P19517 whole entry partner): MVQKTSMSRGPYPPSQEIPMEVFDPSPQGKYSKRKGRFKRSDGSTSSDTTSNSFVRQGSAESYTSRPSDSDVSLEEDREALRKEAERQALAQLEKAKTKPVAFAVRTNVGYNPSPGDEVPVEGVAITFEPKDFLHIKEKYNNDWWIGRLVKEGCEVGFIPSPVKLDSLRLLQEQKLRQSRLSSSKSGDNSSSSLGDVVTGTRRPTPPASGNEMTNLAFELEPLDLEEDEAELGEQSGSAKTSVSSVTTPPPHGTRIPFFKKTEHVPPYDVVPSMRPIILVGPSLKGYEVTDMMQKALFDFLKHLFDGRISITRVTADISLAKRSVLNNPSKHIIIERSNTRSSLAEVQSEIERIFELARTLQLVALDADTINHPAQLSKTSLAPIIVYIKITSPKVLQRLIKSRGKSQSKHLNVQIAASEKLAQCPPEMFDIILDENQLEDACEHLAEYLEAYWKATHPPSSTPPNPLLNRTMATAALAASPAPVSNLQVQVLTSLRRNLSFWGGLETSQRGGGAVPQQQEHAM

Molecule: NC(=O)N1c2ccccc2C=Cc2ccccc21 [Carbamazepine]
- absences in JME (JME seizures): make absence appear for the first time
- effect on JME seizures (JME seizures): can make seizures worse; also recorded: have no effects on or aggravate JME seizures
- effect on JME seizures (JME seizures; listed as carbamezapine): can make seizures worse
- Seizure protecting plasma concentrations in humans [1]: 4 to 10 µg/mL

Molecule: CCC1(C)CC(=O)NC1=O (centres unmarked) [Ethosuximide]
- effect on JME seizures (JME seizures): no effects; also recorded: have no effects on or aggravate JME seizures
- Seizure protecting plasma concentrations in humans [1]: 40 to 100 µg/mL
- T type VDCC (T type VDCC; thalamic neurons): reduce
- T type VDCC (T type VDCC; thalamic neurons, listed as ethozuximide): reduces

Molecule: Nc1nnc(-c2cccc(Cl)c2Cl)c(N)n1 [Lamotrigine]
- effect on JME seizures (JME seizures): seizure-suppressing; also recorded: suppress JME seizures; also recorded: seizure suppressing
- N type HVDCC (N type HVDCC): inhibits
- Seizure protecting plasma concentrations in humans [1]: 3 to 14 µg/mL
- L type HVDCC (L-type HVDCC): spares
- P type HVDCC (P type HVDCC): inhibits

Molecule: CC[C@@H](C(N)=O)N1CCCC1=O [Levetiracetam]
- effect on JME seizures (JME seizures): seizure-suppressing; also recorded: suppress JME seizures; also recorded: seizure suppressing
- high voltage activated calcium currents ([2]; specific type not defined): depresses
- Seizure protecting plasma concentrations in humans [1]: 5 to 45 µg/mL
- T type VDCC (T type VDCC): no effects

Molecule: CCC1(c2ccccc2)C(=O)NC(=O)NC1=O [Phenobarbital]
- Seizure protecting plasma concentrations in humans [1]: 10 to 40 µg/mL

Molecule: O=C1NC(=O)C(c2ccccc2)(c2ccccc2)N1 [Phenytoin]
- absences in JME (JME seizures): make absence appear for the first time
- effect on JME seizures (JME seizures): can make seizures worse; also recorded: have no effects on or aggravate JME seizures
- Seizure protecting plasma concentrations in humans [1]: 10 to 20 µg/mL

Molecule: CC1(C)O[C@@H]2[C@@H](CO[C@@]3(COS(N)(=O)=O)OC(C)(C)O[C@@H]23)O1 [Topiramate]
- effect on JME seizures (JME seizures): seizure-suppressing; also recorded: suppress JME seizures; also recorded: seizure suppressing
- Seizure protecting plasma concentrations in humans [1]: 5 to 10 µg/mL
- peak of L-type HVDCC (L-type HVDCC; 10 μmol/L): decreased

Molecule: CCCC(CCC)C(=O)O [Valproate]
- Seizure protecting plasma concentrations in humans [1]: 40 to 150 µg/mL

Molecule: NS(=O)(=O)Cc1noc2ccccc12 [Zonisamide]
- effect on JME seizures (JME seizures): suppress JME seizures
- effect on JME seizures (JME seizures; listed as zonizamide): seizure-suppressing; also recorded: seizure suppressing
- HVDCC ([2]; 500 μmol/L): does not alter
- N-type Ca^2+ channel activity (N type HVDCC; 500 μmol/L): enhances
- Seizure protecting plasma concentrations in humans [1]: 15 to 40 µg/mL
- P-type calcium channel activity (P type HVDCC; 500 μmol/L): possibly reduces
- T type LVDCC (T type VDCC; 500 μmol/L, cultured fetal rat cortical neurons): reduces

Molecule: CN1C(=O)OC(C)(C)C1=O [trimethadione]
- effect on JME seizures (JME seizures): no effects in JME
- T type VDCC (T type VDCC; thalamic neurons): reduce

Molecule: SNX-482
- apoptosis induced by EFHC1 overexpression ([3]; mouse hippocampal primary culture neurons): specifically suppressed
- survival rates of EFHC1-positive neurons ([3]; surviving cells 48 hours after transfection, antagonist added 3 hrs post transfection): specifically increased

B1: F229L: EFHC1 protein with JME missense mutation F229L (Phe229Leu) (protein)
chain: MVSNPVHGLPFLPGTSFKDSTKTAFHRSQTLSYRNGYAIVRRPTVGIGGDRLQFNQLSQAELDELASKAPVLTYGQPKQAPPADFIPAHVAFDKKVLKFDAYFQEDVPMSTEEQYRIRQVNIYYYLEDDSMSVIEPVVENSGILQGKLIKRQRLAKNDRGDHYHWKDLNRGINITIYGKTFRVVDCDQFTQVFLESQGIELNPPEKMALDPYTELRKQPLRKYVTPSDLDQLKQFLTFDKQVLRFYAIWDDTDSMYGECRTYIIHYYLMDDTVEIREVHERNDGRDPFPLLMNRQRVPKVLVENAKNFPQCVLEISDQEVLEWYTAKDFIVGKSLTILGRTFFIYDCDPFTRRYYKEKFGITDLPRIDVSKREPPPVKQELPPYNGFGLVEDSAQNCFTLIPKAPKKDVIKMLVNDNKVLRYLAVLESPIPEDKDRRFVFSYFLATDMISIFEPPVRNSGIIGGKYLGRTKVVKPYSTVDNPVYYGPSDFFIGAVIEVFGHRFIILDTDEYVLKYMESNAAQYSPEALASIQNHVRKREAPAPEAESKQTEKDPGVQELEALIDTIQKQLKDHSCKDNIREAFQIYDKEASGYVDRDMFFKICESLNVPVDDSLVKELIRMCSHGEGKINYYNFVRAFSN
- Activation V0.5 (mV) (PQ type VDCC (Cav2.1)): 21.0 ± 3.4 mV
- Inactivation V0.5 (mV) (PQ type VDCC (Cav2.1)): −13.7 ± 2.4 mV
- inactivation speed of P/Q type VDCC (decelerating effect on calcium inactivation) (PQ type VDCC (Cav2.1); patch-clamp): abolished the decelerating effect
- Activation k (mV) (PQ type VDCC (Cav2.1)): 9.25 ± 0.43 mV
- Inactivation K (mV) (PQ type VDCC (Cav2.1)): 6.53 ± 0.41 mV
- R-type Ca2+ current generated by Cav2.3 (R-type VDCC (Cav2.3)): significantly suppressed
- cell-death effect (GFP-positive surviving cell numbers) [4]: significantly reversed

B2: D253Y: EFHC1 protein with JME missense mutation D253Y (Asp253Tyr) (protein)
chain: MVSNPVHGLPFLPGTSFKDSTKTAFHRSQTLSYRNGYAIVRRPTVGIGGDRLQFNQLSQAELDELASKAPVLTYGQPKQAPPADFIPAHVAFDKKVLKFDAYFQEDVPMSTEEQYRIRQVNIYYYLEDDSMSVIEPVVENSGILQGKLIKRQRLAKNDRGDHYHWKDLNRGINITIYGKTFRVVDCDQFTQVFLESQGIELNPPEKMALDPYTELRKQPLRKYVTPSDFDQLKQFLTFDKQVLRFYAIWDDTYSMYGECRTYIIHYYLMDDTVEIREVHERNDGRDPFPLLMNRQRVPKVLVENAKNFPQCVLEISDQEVLEWYTAKDFIVGKSLTILGRTFFIYDCDPFTRRYYKEKFGITDLPRIDVSKREPPPVKQELPPYNGFGLVEDSAQNCFTLIPKAPKKDVIKMLVNDNKVLRYLAVLESPIPEDKDRRFVFSYFLATDMISIFEPPVRNSGIIGGKYLGRTKVVKPYSTVDNPVYYGPSDFFIGAVIEVFGHRFIILDTDEYVLKYMESNAAQYSPEALASIQNHVRKREAPAPEAESKQTEKDPGVQELEALIDTIQKQLKDHSCKDNIREAFQIYDKEASGYVDRDMFFKICESLNVPVDDSLVKELIRMCSHGEGKINYYNFVRAFSN
- Ca2+ current density of P/Q-type VDCC (Cav2.1) (PQ type VDCC (Cav2.1); cells co-transfected with P/Q-type VDCC and EFHC1 constructs): prominently increased
- sustained component of calcium currents (PQ type VDCC (Cav2.1); compared with vector-transfected control P/Q-type-expressing cells): reduced
- Activation V0.5 (mV) (PQ type VDCC (Cav2.1)): 19.7 ± 2.0 mV
- Inactivation V0.5 (mV) (PQ type VDCC (Cav2.1)): −10.9 ± 1.8 mV
- Activation k (mV) (PQ type VDCC (Cav2.1)): 7.60 ± 0.51 mV
- Inactivation K (mV) (PQ type VDCC (Cav2.1)): 6.08 ± 0.22 mV
- cell-death effect (GFP-positive surviving cell numbers) [4]: significantly reversed
